From the NIST ThermoML archive (doi:10.1021/je301004f)

Assays:
[1] = for mass density / viscosity: 101.33 kPa, Liquid; for mass density: Vibrating tube method; for viscosity: Falling or rolling sphere viscometry
[2] = refractive index (Na D-line) (dimensionless); settings: 101.33 kPa, Liquid, Standard Abbe refractometry

CCCCCCCC/C=C\CCCCCCCCn1cc[n+](C)c1.O=S(=O)([N-]S(=O)(=O)C(F)(F)F)C(F)(F)F
Settings	mass density [kg/m3]	refractive index	viscosity [mPa·s]
[1], 273.15 K	1210.9	–	–
[1], 278.15 K	–	–	1005.3
[1], 283.15 K	1202.62	–	698.6
[1], 288.15 K	–	–	492.9
[1], 293.15 K	1194.49	–	355.7
[1], 298.15 K	–	–	263.5
[1], 303.15 K	1186.39	–	222.85
[1], 313.15 K	1178.38	–	133.94
[1], 323.15 K	1170.38	–	85.97
[1], 333.15 K	1162.47	–	58.09
[1], 343.15 K	1154.57	–	41.09
[2], 283.2 K	–	1.4576	–
[2], 293.2 K	–	1.4545	–
[2], 298.2 K	–	1.4528	–
[2], 303.2 K	–	1.4511	–
[2], 313.2 K	–	1.4479	–
[2], 323.2 K	–	1.4446	–
[2], 333.2 K	–	1.441	–
[2], 343.2 K	–	1.4379	–

Settings	Normal melting temperature [°C]
[1], Crystal, DTA	-20.8
